Experimental data published in patent US7332608B2, “Anthranilamides and methods of their use” (SANOFI-AVENTIS Deutschland GmbH, priority 2001, dated 2008).

Target: T1, Human Kv1.5 channels (Homo sapiens, UniProt P22460)
T1 construct: expressed in transfected cells; host or cells: Xenopus laevis oocytes injected with in vitro synthesized Kv1.5-encoding RNA
Test: Kv1.5 currents in Xenopus oocytes, two-microelectrode voltage clamp
Format: cell-based
Details: human Kv1.5 expressed in Xenopus laevis oocytes; voltage jumps 500 ms to 0 mV and 40 mV; room temperature; Hill equation
Protocol: Human Kv1.5 channels were expressed in Xenopus oocytes. For this purpose, firstly ooytes were isolated from Xenopus laevis and were defolliculated. Kv1.5-encoding RNA which had been synthesized in vitro was then injected into these oocytes. After 1-7 days of Kv1.5 protein expression, the Kv1.5 currents were measured on the oocytes by the two-microelectrode voltage clamp technique. The Kv1.5 channels were for this purpose usually activated with voltage jumps lasting 500 ms to 0 mV and 40 mV. A solution of the following composition flowed through the bath: NaCl 96 mM, KCl 2 mM, CaCl2 1.8 mM, MgCl2 1 mM, HEPES 5 mM (titrated to pH 7.4 with NaOH). These experiments were carried out at room temperature. The following were employed for data acquisition and analysis: geneclamp amplifier (Axon Instruments, Foster City, USA) and MacLab D/A converter and software (ADInstruments, Castle Hill, Australia). The compounds of the invention were tested by adding them in various concentrations to the bath solution. The effects of the compounds were calculated as percentage inhibition of the Kv1.5 control current which was obtained when no compound was added to the solution. The data were then extrapolated using the Hill equation in order to determine the inhibitory concentrations IC50 for the respective compounds.

T1 sequence (P22460 whole entry): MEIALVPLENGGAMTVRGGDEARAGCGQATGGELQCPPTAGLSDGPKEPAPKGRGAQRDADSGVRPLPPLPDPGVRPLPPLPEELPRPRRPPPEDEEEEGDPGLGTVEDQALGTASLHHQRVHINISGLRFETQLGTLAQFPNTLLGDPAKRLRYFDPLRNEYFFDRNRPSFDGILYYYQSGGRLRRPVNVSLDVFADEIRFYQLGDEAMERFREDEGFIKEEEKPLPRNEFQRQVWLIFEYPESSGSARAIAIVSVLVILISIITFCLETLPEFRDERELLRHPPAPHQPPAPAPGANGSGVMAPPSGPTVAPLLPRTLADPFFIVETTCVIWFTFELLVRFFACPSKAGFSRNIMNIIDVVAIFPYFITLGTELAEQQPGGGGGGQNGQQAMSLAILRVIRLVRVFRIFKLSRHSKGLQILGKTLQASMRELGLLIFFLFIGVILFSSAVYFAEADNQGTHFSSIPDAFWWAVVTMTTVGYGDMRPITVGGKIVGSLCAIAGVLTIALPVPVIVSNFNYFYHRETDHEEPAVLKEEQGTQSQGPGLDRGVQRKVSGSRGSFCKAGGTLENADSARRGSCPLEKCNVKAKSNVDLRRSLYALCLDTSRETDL

| Structure (SMILES) | IC50 |
| --- | --- |
| CCc1ccc(S(=O)(=O)Nc2ccccc2C(=O)N(Cc2ccccc2)Cc2cccnc2)cc1 [Example 72] | 5 µM |
| CCCS(=O)(=O)Nc1ccccc1C(=O)N[C@@H](CC)c1ccccc1 [Example 73] | 3.1 µM |
| CC[C@H](NC(=O)c1ccccc1NS(=O)(=O)CCC(C)C)c1ccccc1 [Example 74] | 1.7 µM |
| Cc1cccc(S(=O)(=O)Nc2ccccc2C(=O)N(Cc2ccccc2)Cc2cccnc2)c1 [Example 75] | 2.9 µM |
| CC[C@H](NC(=O)c1ccccc1NS(=O)(=O)c1ccc(C)cc1OC)c1ccccc1 [Example 76] | 4.7 µM |
| CCc1ccc(S(=O)(=O)Nc2ccccc2C(=O)N[C@@H](CC)c2ccccc2)cc1 [Example 77] | 2.6 µM |
| Cc1ccc(S(=O)(=O)Nc2ccccc2C(=O)N(Cc2ccccc2)Cc2cccnc2)cc1 [Example 79] | 0.7 µM |
| Cc1ccc(S(=O)(=O)Nc2ccc(F)cc2C(=O)N(Cc2ccccc2)Cc2nccn2C)cc1 [Example 81] | 0.4 µM |
| COc1cccc(CN(CC2CC2)C(=O)c2ccccc2NS(=O)(=O)c2ccc(C)cc2)c1 [Example 82] | 3.2 µM |
| Cc1ccc(S(=O)(=O)Nc2ccccc2C(=O)N(Cc2ccccc2)Cc2cccn2C)cc1 [Example 83] | 1.9 µM |
| Cc1ccc(S(=O)(=O)Nc2ccccc2C(=O)N(Cc2ccccc2)Cc2nccs2)cc1 [Example 84] | 1 µM |
| Cc1ccc(S(=O)(=O)Nc2ccccc2C(=O)N(Cc2ccn[nH]2)CC2CC2)cc1 [Example 85] | 5.2 µM |
| Cc1ccc(S(=O)(=O)Nc2ccccc2C(=O)N(Cc2ccccc2)Cc2ccc[nH]2)cc1 [Example 86] | 1.8 µM |
| Cc1ccc(S(=O)(=O)Nc2ccccc2C(=O)N(Cc2cnc3ccccc3c2)CC2CC2)cc1 [Example 87] | 6 µM |
| CCc1nc(C)c(CN(Cc2ccccc2)C(=O)c2ccccc2NS(=O)(=O)c2ccc(C)cc2)[nH]1 [Example 88] | 3.9 µM |
| Cc1ccc(S(=O)(=O)Nc2ccccc2C(=O)N(Cc2ccccc2)Cc2nn(C)cc2Cl)cc1 [Example 89] | 3.2 µM |
| CC[C@H](NC(=O)c1cc(OC)ccc1NS(=O)(=O)c1ccc(C)cc1)c1ccccc1 [Example 90] | 0.5 µM |
| CCC(NC(=O)c1cc(OC)ccc1NS(=O)(=O)c1ccc(C)cc1)c1ccc(F)cc1 (stereo not shown) [Example 91] | 0.8 µM |
| CCCC(NC(=O)c1cc(OC)ccc1NS(=O)(=O)c1ccc(C)cc1)c1ccccc1 (stereo not shown) [Example 92] | 0.9 µM |
| COc1ccc(NS(=O)(=O)c2ccc(C)cc2)c(C(=O)NC(c2ccccc2)C2CC2)c1 (stereo not shown) [Example 93] | 1.1 µM |

| Structure (SMILES) | IC50 |
| --- | --- |
| O=C(NC(c1ccccc1)C1CC1)c1ccccc1NS(=O)(=O)c1ccccc1 (stereo not shown) [Example 94] | 1 µM |
| COc1ccc(NS(=O)(=O)c2ccc(C)cc2)c(C(=O)N[C@@H](C)C2CCCCC2)c1 [Example 95] | 0.7 µM |
| COc1cccc([C@H](C)NC(=O)c2cc(OC)ccc2NS(=O)(=O)c2ccc(C)cc2)c1 [Example 96] | 1 µM |
| COc1ccc([C@H](C)NC(=O)c2cc(OC)ccc2NS(=O)(=O)c2ccc(C)cc2)cc1 [Example 97] | 0.9 µM |
| C[C@@H](c1ccccc1)N(C)C(=O)c1ccccc1NS(=O)(=O)c1ccccc1 [Example 98] | 2 µM |
| CC[C@@H](NC(=O)c1cc(OC)ccc1NS(=O)(=O)c1ccc(C)cc1)c1ccccc1 [Example 99] | 0.9 µM |
| Cc1ccc(S(=O)(=O)Nc2ccc(F)cc2C(=O)N(Cc2ccccc2)CC2CCCO2)cc1 (stereo not shown) [Example 100] | 1.6 µM |
| Cc1ccc(S(=O)(=O)Nc2ccc(F)cc2C(=O)N(Cc2ccccc2)Cc2cccc(C)n2)cc1 [Example 101] | 0.9 µM |
| Cc1ccc(S(=O)(=O)Nc2ccc(F)cc2C(=O)N(Cc2ccccc2)Cc2ccn[nH]2)cc1 [Example 102] | 0.7 µM |
| COc1ccc(NS(=O)(=O)c2ccc(C)cc2)c(C(=O)NC(C)(C)c2ccccc2)c1 [Example 103] | 1.4 µM |
| COc1ccc(NS(=O)(=O)c2ccc(C)cc2)c(C(=O)NC(C)c2ccc(F)cc2)c1 (stereo not shown) [Example 104] | 1 µM |
| C[C@H](c1ccccc1)N(C)C(=O)c1ccccc1NS(=O)(=O)c1ccccc1 [Example 105] | 2.6 µM |
| CC[C@H](NC(=O)c1cc(F)ccc1NS(=O)(=O)c1ccc(Cl)cc1)c1ccccc1 [Example 106] | 3.8 µM |
| Cc1ccc(S(=O)(=O)Nc2ccc(F)cc2C(=O)N(Cc2ccc(F)cc2)Cc2nccn2C)cc1 [Example 107] | 0.9 µM |
| Cc1ccc(S(=O)(=O)Nc2ccc(F)cc2C(=O)N(Cc2ccc(F)cc2)Cc2ccn[nH]2)cc1 [Example 108] | 1.2 µM |
| Cc1ccc(S(=O)(=O)Nc2ccccc2C(=O)N(Cc2ccc(F)cc2)Cc2nccn2C)cc1 [Example 109] | 1.1 µM |
| Cc1ccc(S(=O)(=O)Nc2ccc(F)cc2C(=O)N(Cc2ccccc2)Cc2nccs2)cc1 [Example 110] | 1 µM |
| Cc1ccc(S(=O)(=O)Nc2ccccc2C(=O)N(Cc2nn(C)cc2Cl)CC2CC2)cc1 [Example 111] | 1.7 µM |
| Cc1ccc(S(=O)(=O)Nc2ccccc2C(=O)N(Cc2ccccc2)Cc2ccn[nH]2)cc1 [Example 112] | 0.5 µM |
| Cc1ccc(S(=O)(=O)Nc2ccccc2C(=O)N(Cc2cccc(C)n2)CC2CC2)cc1 [Example 113] | 2.6 µM |

| Structure (SMILES) | IC50 |
| --- | --- |
| CCCCS(=O)(=O)Nc1ccc(C)cc1C(=O)N[C@H](CC)c1ccccc1 [Example 114] | 1.4 µM |
| CC[C@H](NC(=O)c1cc(F)ccc1NS(=O)(=O)c1ccc(C)cc1)c1ccccc1 [Example 115] | 2.4 µM |
| Cc1ccc(S(=O)(=O)Nc2ccccc2C(=O)N(Cc2ccccc2)CC2CCCO2)cc1 (stereo not shown) [Example 116] | 1.1 µM |
| Cc1ccc(S(=O)(=O)Nc2ccccc2C(=O)N(Cc2ccc(F)cc2)Cc2cccc(C)n2)cc1 [Example 117] | 2.4 µM |
| Cc1ccc(S(=O)(=O)Nc2ccccc2C(=O)N(Cc2cccnc2)Cc2cccc(C)n2)cc1 [Example 118] | 2.2 µM |
| Cc1ccc(S(=O)(=O)Nc2ccccc2C(=O)N(Cc2nccs2)CC2CCCCC2)cc1 [Example 119] | 2.7 µM |
| Cc1ccc(S(=O)(=O)Nc2ccccc2C(=O)N(Cc2cccc(C)n2)CC2CCCO2)cc1 (stereo not shown) [Example 120] | 1.4 µM |
| Cc1ccc(S(=O)(=O)Nc2ccccc2C(=O)N(Cc2cccc(C)n2)Cc2ccco2)cc1 [Example 121] | 0.6 µM |
| Cc1ccc(S(=O)(=O)Nc2ccccc2C(=O)N(Cc2ccco2)Cc2nccn2C)cc1 [Example 122] | 1.2 µM |
| CCCCS(=O)(=O)Nc1ccccc1C(=O)N(Cc1cccnc1)Cc1cccc(C)n1 [Example 123] | 2.9 µM |
| COc1ccc(NS(=O)(=O)c2ccc(C)cc2)c(C(=O)NC(c2ccccn2)C2CC2)c1 (stereo not shown) [Example 124] | 1 µM |
| CCCCS(=O)(=O)Nc1ccc(C)cc1C(=O)NC(c1ccccn1)C1CC1 (stereo not shown) [Example 125] | 1.8 µM |
| Cc1ccc(S(=O)(=O)Nc2ccc(C)cc2C(=O)NC(c2ccccn2)C2CC2)cc1 (stereo not shown) [Example 126] | 0.6 µM |
| CCCCS(=O)(=O)Nc1ccc(C)cc1C(=O)NC(c1cccc(OC)n1)C1CC1 (stereo not shown) [Example 127] | 3.3 µM |
| C#CC(NC(=O)c1cc(C)ccc1NS(=O)(=O)CCCC)c1ccccc1 (stereo not shown) [Example 128] | 2.2 µM |
| CCCCS(=O)(=O)Nc1ccc(C)cc1C(=O)NC(c1ccc(OC)nc1)C1CC1 (stereo not shown) [Example 129] | 1.3 µM |
| CCC(c1ccccc1)N(C)C(=O)c1ccccc1NS(=O)(=O)c1ccccc1 (stereo not shown) [Example 130] | 0.7 µM |
| COc1ccc(NS(=O)(=O)c2ccc(C)cc2)c(C(=O)NC(c2cccnc2)C2CC2)c1 (stereo not shown) [Example 131] | 0.7 µM |
